According to PubChem BioAssay AID1963827 (Molecular Pharmacology Branch, DTP, NCI, 2024):
Several values for one entry are separate records, joined by “and”; a condition that tells them apart may be missing. Equal values may be shown once.

Tested on: 994946-033-R-J1-PDC complex spheroid viability
Test: Anticancer human tumor 994946-033-R-J1-PDC patient-derived melanoma cell line growth inhibition [POLQ]
Details: for viability, T/C: stronger effect = lower value
Method: Multicellular complex tumor spheroid response to Polymerase (POL) inhibitors (novobiocin, ART-558, RP6685) in combination with a variety of drugs and investigational agents in selected tumor cell lines
The POL inhibitors (novobiocin, ART-558, and RP6685) were evaluated both individually and in combination with standard of care and investigational anticancer small molecules within a complex spheroid model of solid tumors. . Complex spheroids include a stromal component modeled by human endothelial cells (HUVEC) and fibroblasts modeled by human mesenchymal stem cells (MSCs). The concentration ranges selected for each drug and investigational agent were based upon clinically achievable concentrations if the clinical Cmax of the agent was known.
Compounds. The drugs and investigational agents: novobiocin (NSC847541), ART-558 (NSC835418), RP-6685 (NSC848927), peposertib (NSC802822), ceralasertib (NSC780249), elimusertib (NSC800525), camonsertib (NSC841442), AZD-1390 (NSC803789), olaparib (NSC753686), talazoparib (NSC767125), rucaparib (NSC756644), sotorasib (NSC818433), MRTX-1133 (NSC836407), SN-38 (NSC673596), topotecan (NSC609699), epotoside (NSC141540), doxorubicin (NSC123127), gemcitabine (NSC613327), 5-fluorouracil (NSC19893), paclitaxel (NSC125973), vemurafenib (NSC761431), MSA-2 (NSC828583), SN-011 (NSC837082), adavosertib (NSC754352), prexasertib (NSC758257), carboplatin (NSC241240) and oxaliplatin (NSC266046), were obtained from the National Cancer Institute (NCI) Developmental Therapeutics Program Chemical Repository (21). The FDA-approved anticancer drug set is available from the Developmental Therapeutics Program at https://dtp.cancer.gov/organization/dscb/obtaining/. […] The stock solutions were prepared in dimethyl sulfoxide (DMSO, Sigma-Aldrich, St. Louis, MO, cat. D2650), except for the platinum compounds which were prepared in saline (Quality Biological, Gaithersburg, MD, cat. 114-055-101), at 800-fold the tested concentration and stored at -70 degrees C prior to their use. All drugs and investigational agents were tested over a range starting from a high concentration at or near the clinical Cmax and decreasing in half-log increments. If the clinical Cmax for an agent had not been determined, the highest concentration tested was 10 microM, except for SN-38, which was tested at a high concentration of 1 microM.
Cell Culture. All cells were maintained in an incubator at 37 degrees C and 5% CO2 with 95% humidity. The PDC lines were cultured according to standard operating procedures established by the NCI PDMR (https://pdmr.cancer.gov). Table 3 of the manuscript, lists the cell lines along with the number of the three cell types plated to form the mct-spheroids and media for tumor cell growth. After thawing, all PDC lines, except 997537-175-T-J1-PDC and 415267-285-R-J2-PDC, were cultured in Matrigel-coated flasks prepared with a working solution of 1X Ham's F-12 nutrient mix, without supplementation (Thermo Fisher Scientific, cat. 11765054), 100 U/mL penicillin-streptomycin (Thermo Fisher Scientific, cat. 15140122), and 2.5% Matrigel (Corning Inc., Corning, NY, cat. 354248) for the first three passages. The two PDC lines 997537-175-T-J1-PDC and 415267-285-R-J2-PDC were cultured on uncoated flasks. The 857933-349-R-J2-PDC line was cultured in 6C/Colon 1B media containing advanced DMEM/F-12 (Thermo Fisher Scientific, cat. 12634028), 10 mM HEPES (Thermo Fisher Scientific, cat. 15630080), 1X GlutaMAX supplement (Thermo Fisher Scientific, cat. 35050061), 0.1 mg/mL primocin (InvivoGen, San Diego, CA, cat. ant-pm-2), 10% defined fetal bovine serum, heat inactivated (HyClone Laboratories Inc., Logan, UT, cat. SH30070.03HI), 50% L-WRN conditioned media (ATCC, cat. CRL-3276), 1.25 mM N-Acetyl-L-cysteine (Sigma-Aldrich, cat. A9165), 10 mM nicotinamide (Sigma-Aldrich, cat. N0636), 1X B-27 supplement (Thermo Fisher Scientific, cat. 17504044), 1X N-2 supplement (Thermo Fisher Scientific, cat. […]

[1] = curve of first compound, second compound 0.0316 µM
[2] = curve of first compound, second compound 0.1 µM
[3] = curve of first compound, second compound 0.316 µM
[4] = curve of first compound, second compound 1 µM
[5] = curve of first compound, second compound 3.16 µM
[6] = curve of first compound, second compound 10 µM
[7] = second compound 0.0316 µM, first compound 0.0316 µM
[8] = second compound 0.0316 µM, first compound 0.1 µM
[9] = second compound 0.0316 µM, first compound 0.316 µM
[10] = second compound 0.0316 µM, first compound 1 µM
[11] = second compound 0.0316 µM, first compound 3.16 µM
[12] = second compound 0.0316 µM, first compound 10 µM
[13] = second compound 0.1 µM, first compound 0.0316 µM
[14] = second compound 0.1 µM, first compound 0.1 µM
[15] = second compound 0.1 µM, first compound 0.316 µM
[16] = second compound 0.1 µM, first compound 1 µM
[17] = second compound 0.1 µM, first compound 3.16 µM
[18] = second compound 0.1 µM, first compound 10 µM
[19] = second compound 0.316 µM, first compound 0.0316 µM
[20] = second compound 0.316 µM, first compound 0.1 µM
[21] = second compound 0.316 µM, first compound 0.316 µM
[22] = second compound 0.316 µM, first compound 1 µM
[23] = second compound 0.316 µM, first compound 3.16 µM
[24] = second compound 0.316 µM, first compound 10 µM
[25] = second compound 1 µM, first compound 0.0316 µM
[26] = second compound 1 µM, first compound 0.1 µM
[27] = second compound 1 µM, first compound 0.316 µM
[28] = second compound 1 µM, first compound 1 µM
[29] = second compound 1 µM, first compound 3.16 µM
[30] = second compound 1 µM, first compound 10 µM
[31] = second compound 3.16 µM, first compound 0.0316 µM
[32] = second compound 3.16 µM, first compound 0.1 µM
[33] = second compound 3.16 µM, first compound 0.316 µM
[34] = second compound 3.16 µM, first compound 1 µM
[35] = second compound 3.16 µM, first compound 3.16 µM
[36] = second compound 3.16 µM, first compound 10 µM
[37] = second compound 10 µM, first compound 0.0316 µM
[38] = second compound 10 µM, first compound 0.1 µM
[39] = second compound 10 µM, first compound 0.316 µM
[40] = second compound 10 µM, first compound 1 µM
[41] = second compound 10 µM, first compound 3.16 µM
[42] = second compound 10 µM, first compound 10 µM
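Note: spheroids exposed to drugs for 7 days.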
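Throughout, for viability, T/C: 100% = DMSO vehicle treated spheroids.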

CCCS(=O)(=O)Nc1ccc(F)c(C(=O)c2c[nH]c3ncc(-c4ccc(Cl)cc4)cc23)c1F + COC1C(OC(N)=O)C(O)C(Oc2ccc3c(O)c(NC(=O)c4ccc(O)c(CC=C(C)C)c4)c(=O)oc3c2C)OC1(C)C
IC50 [1]: 6.68 µM
IC50 [2]: 5.99 µM
IC50 [3]: 5.14 µM
IC50 [4]: 6.12 µM
IC50 [5]: 4.85 µM
IC50 [6]: 6.15 µM
viability, T/C [7]: 128%
viability, T/C [8]: 113%
viability, T/C [9]: 99.6%
viability, T/C [10]: 93.4%
viability, T/C [11]: 109%
viability, T/C [12]: 18.3%
viability, T/C [13]: 102%
viability, T/C [14]: 98.7%
viability, T/C [15]: 89.3%
viability, T/C [16]: 105%
viability, T/C [17]: 106%
viability, T/C [18]: 9.61%
viability, T/C [19]: 104%
viability, T/C [20]: 101%
viability, T/C [21]: 97.3%
viability, T/C [22]: 121%
viability, T/C [23]: 75.3%
viability, T/C [24]: 15.4%
viability, T/C [25]: 90.5%
viability, T/C [26]: 93.4%
viability, T/C [27]: 90.4%
viability, T/C [28]: 108%
viability, T/C [29]: 91.3%
viability, T/C [30]: 19.2%
viability, T/C [31]: 113%
viability, T/C [32]: 111%
viability, T/C [33]: 104%
viability, T/C [34]: 93.8%
viability, T/C [35]: 67.5%
viability, T/C [36]: 20.2%
viability, T/C [37]: 102%
viability, T/C [38]: 107%
viability, T/C [39]: 112%
viability, T/C [40]: 94.2%
viability, T/C [41]: 99.9%
viability, T/C [42]: 13.5%

CC[C@@]1(O)C(=O)OCc2c1cc1n(c2=O)Cc2cc3c(CN(C)C)c(O)ccc3nc2-1 + Nc1ccc(C#CCN(C(=O)Cc2ncc(C(F)(F)F)cc2C(F)(F)F)c2ccc(F)cc2)nn1
IC50 [1]: 0.0265 µM
IC50 [2]: 0.0294 µM
IC50 [3]: 0.0214 µM
IC50 [4]: 0.0225 µM
IC50 [5]: 0.0215 µM
IC50 [6]: 0.0303 µM
viability, T/C (second compound 0.0316 µM, first compound 0.000316 µM): 95.3%
viability, T/C (second compound 0.0316 µM, first compound 0.001 µM): 94.5%
viability, T/C (second compound 0.0316 µM, first compound 0.00316 µM): 99.9%
viability, T/C (second compound 0.0316 µM, first compound 0.01 µM): 79%
viability, T/C [7]: 45%
viability, T/C [8]: 9.6%
viability, T/C (second compound 0.1 µM, first compound 0.000316 µM): 91.7%
viability, T/C (second compound 0.1 µM, first compound 0.001 µM): 113%
viability, T/C (second compound 0.1 µM, first compound 0.00316 µM): 78.2%
viability, T/C (second compound 0.1 µM, first compound 0.01 µM): 98.9%
viability, T/C [13]: 46.9%
viability, T/C [14]: 15.4%
viability, T/C (second compound 0.316 µM, first compound 0.000316 µM): 101%
viability, T/C (second compound 0.316 µM, first compound 0.001 µM): 109%
viability, T/C (second compound 0.316 µM, first compound 0.00316 µM): 89.9%
viability, T/C (second compound 0.316 µM, first compound 0.01 µM): 79.5%
viability, T/C [19]: 34.6%
viability, T/C [20]: 17.1%
viability, T/C (second compound 1 µM, first compound 0.000316 µM): 130%
viability, T/C (second compound 1 µM, first compound 0.001 µM): 90.3%
viability, T/C (second compound 1 µM, first compound 0.00316 µM): 106%
viability, T/C (second compound 1 µM, first compound 0.01 µM): 87.8%
viability, T/C [25]: 33.7%
viability, T/C [26]: 11.7%
viability, T/C (second compound 3.16 µM, first compound 0.000316 µM): 92%
viability, T/C (second compound 3.16 µM, first compound 0.001 µM): 119%
viability, T/C (second compound 3.16 µM, first compound 0.00316 µM): 96.8%
viability, T/C (second compound 3.16 µM, first compound 0.01 µM): 86.8%
viability, T/C [31]: 31.4%
viability, T/C [32]: 13.7%
viability, T/C (second compound 10 µM, first compound 0.000316 µM): 100%
viability, T/C (second compound 10 µM, first compound 0.001 µM): 113%
viability, T/C (second compound 10 µM, first compound 0.00316 µM): 98.5%
viability, T/C (second compound 10 µM, first compound 0.01 µM): 110%
viability, T/C [37]: 47.7%
viability, T/C [38]: 14.4%

COc1ccc([C@@H](O)c2cc(-c3ncnc4cc(N5CCOCC5)ccc34)c(F)cc2Cl)nn1 + COC1C(OC(N)=O)C(O)C(Oc2ccc3c(O)c(NC(=O)c4ccc(O)c(CC=C(C)C)c4)c(=O)oc3c2C)OC1(C)C
IC50 [1]: 4.18 µM
IC50 [2]: 2.2 µM
IC50 [3]: 4.88 µM
IC50 [4]: 6.13 µM
IC50 [5]: 7.07 µM
IC50 [6]: 9.07 µM
viability, T/C [7]: 101%
viability, T/C [8]: 83%
viability, T/C [9]: 83.5%
viability, T/C [10]: 78.8%
viability, T/C [11]: 49.4%
viability, T/C [12]: 36.5%
viability, T/C [13]: 107%
viability, T/C [14]: 74.5%
viability, T/C [15]: 93%
viability, T/C [16]: 73.5%
viability, T/C [17]: 36.7%
viability, T/C [18]: 41.8%
viability, T/C [19]: 93.3%
viability, T/C [20]: 107%
viability, T/C [21]: 85.8%
viability, T/C [22]: 64%
viability, T/C [23]: 62.3%
viability, T/C [24]: 39.6%
viability, T/C [25]: 128%
viability, T/C [26]: 90.6%
viability, T/C [27]: 70.6%
viability, T/C [28]: 68.7%
viability, T/C [29]: 76%
viability, T/C [30]: 39.5%
viability, T/C [31]: 91.7%
viability, T/C [32]: 88.7%
viability, T/C [33]: 96.1%
viability, T/C [34]: 70.5%
viability, T/C [35]: 62.6%
viability, T/C [36]: 44.9%
viability, T/C [37]: 103%
viability, T/C [38]: 90.4%
viability, T/C [39]: 71.9%
viability, T/C [40]: 65.5%
viability, T/C [41]: 60%
viability, T/C [42]: 47.4%

Cn1ncnc1[C@H]1c2n[nH]c(=O)c3cc(F)cc(c23)N[C@@H]1c1ccc(F)cc1
viability, T/C (compound 0.000316 µM): 118% and 108% and 103%
viability, T/C (compound 0.001 µM): 82.7% and 80.6% and 106%
viability, T/C (compound 0.00316 µM): 69.9% and 79.6% and 106%
viability, T/C (compound 0.01 µM): 104% and 80% and 82.1%
viability, T/C (compound 0.0316 µM): 87.1% and 53.5% and 66.7%
viability, T/C (compound 0.1 µM): 65.3% and 44.1% and 65.5%
IC50 (curve of compound): > 0.1 µM and 0.0619 µM
